Measured values reported in US20100234366A1, “Use of Strobilurins for the Treatment of Disorders of Iron Metabolism” (BSF SE, priority 2006, published 2010).

Columns and labels:
male Wistar rats [1] = assay: Treatment of rats with an elevated iron level (iron level in the blood); format: in vivo, rat
Procedure: Two grams of the phenylacetic acid derivative orysastrobin were prepared by known methods and purified by conventional methods.
Six-week old male Wistar rats (Elévage Janvier, France) were employed for the experiments. These rats, which were housed under conventional conditions (20-24° C., 30-70% humidity, 12 hours illumination, standard food) were divided into five groups of equal size.
The first group was treated with no iron compound and no strobilurin derivative.
The second group was treated only with 200 mg of the phenylacetic acid derivative orysastrobin (as suspension by gavage).
The third group received a single intramuscular injection of 50 mg/kg of an iron(III) hydroxide-dextran complex (Myofer® 100), 1 ml of the injection solution comprising 320 mg of the complex (equivalent to 195 mg of Fe(OH)3).
The fourth group received both an injection of 50 mg/kg of the iron complex and, after 6 hours, a dose of 200 mg/kg of the strobilurin derivative by gavage.
The fifth group received both an injection of 50 mg/kg of the iron complex and, after 24 hours, a dose of 200 mg/kg of the strobilurin derivative by gavage.
24 hours before the start of the test, a blood sample was taken from all the rats, in each case at 8 o'clock in the morning of the preceding day, and was analyzed. The iron complex and/or the strobilurin derivative was administered at 8 o'clock in the morning of the day of the experiment. Further blood samples were taken from all the rats at 2 o'clock in the afternoon of the day of the experiment and at 8 o'clock in the morning of the next day, and were analyzed.

HFE mice = assay: Treatment of HFE mice (serum iron level, model of hemochromatosis); format: in vivo, mouse; conditions: for reduction of serum iron concentration compared with control group: 2000 ppm in the food, 7 days
Procedure: This genetic defect leads to HFE mice having an elevated iron level in the liver, and this can serve as model of hemochromatosis disorder in humans. The HFE mice employed in the experiments were 12 to 23 weeks old (obtained from University College London, Department of Biochemistry and Molecular Biology).
The housing conditions of the mice corresponded to typical standards as have also been described in Example 1. In the experiments, investigations were carried out both with male HFE mice and with female HFE mice. In each case one group of animals received over a period of 7 days 2000 ppm of the phenylacetic acid derivative orysastrobin each day. The product was supplied freely in the food. The comparison group received only the regular food.

male Wistar rats [2] = assay: Treatment of rats with dimoxystrobin (iron concentration in the blood); format: in vivo, rat; conditions: for average iron level in the blood: fourth group: 6-week old rats; for average iron level in the blood / blood level of iron: 500 ppm each day via the food; for blood level of iron: second group: 3-week old rats; for level of iron in the blood: sixth group: 3-week old rats, 250 ppm each day
Procedure: 10 g of the phenylacetic acid derivative dimoxystrobin were prepared by known methods and purified by conventional methods.
Both 3-week old and 6-week old male Wistar rats (see Example 1) were employed for the subsequent experiments. These rats were divided into 6 equally sized groups of 10 rats. The rats were housed under conventional conditions.
The first group consisted of 3-week old rats. They received only the regular food over the entire period of the experiment.
The second group likewise consisted of 3-week old rats. The animals received 500 ppm (milligrams of test substance per […]) of dimoxystrobin each day. It was supplied via the food.
The third group consisted of 6-week old rats which received no active ingredient via the food.
The fourth group consisted of 6-week old rats which received 500 ppm dimoxystrobin via the food each day.
The fifth group consisted of 3-week old rats which received no active ingredient.
The sixth group consisted of 3-week old rats which received 250 ppm of the test substance dimoxystrobin each day.
The iron concentrations in the blood were determined both after 2 days and after 7 days.

SMILES: CNC(=O)/C(=N/OC)c1ccccc1CO/N=C(C)/C(=N/OC)C(/C)=N/OC [orysastrobin, (2E)-2(methoximino)-2-[2-[(3E,5E,6E)-5-(methoximino)-4,6-dimethyl-2 , 8-dioxa-3,7-diazanona-3,6-dien-1-yl]phenyl]-N-methylacetamide]
- iron level in the blood (male Wistar rats [1]; fifth group: 50 mg/kg iron complex i.m. plus 200 mg/kg orysastrobin by gavage, after 24 hours, iron only 147.8): 91.9 µmol/L
- iron level in the blood (male Wistar rats [1]; fourth group: 50 mg/kg iron complex i.m. plus 200 mg/kg orysastrobin by gavage, after 6 hours, iron only 153.9): 83.1 µmol/L
- iron level in the blood (male Wistar rats [1]; second group: only 200 mg orysastrobin by gavage, no iron, 6 hours after administration, untreated control 47.8): 20.6 µmol/L
- iron level in the blood (male Wistar rats [1]; second group: only 200 mg orysastrobin by gavage, no iron, after 24 hours, untreated control 47.8): 26.3 µmol/L
- iron level (serum) (HFE mice; female HFE mice, 2000 ppm each day in the food, after one week, control 51.2): 36.66 µmol/L
- reduction of serum iron concentration compared with control group (HFE mice; female HFE mice): about 28%
- serum iron level (HFE mice; male HFE mice, 2000 ppm each day in the food, after one week, control 40.06): 30.62 µmol/L
- reduction of serum iron concentration compared with control group (HFE mice; male HFE mice): about 24%

SMILES: CNC(=O)/C(=N/OC)c1ccccc1COc1cc(C)ccc1C [dimoxystrobin, (E)-2(methoximino)-N-methyl-2-[α-(2,5-xylyloxy)-o-tolyl]acetamide]
- average iron level in the blood (male Wistar rats [2]; after 2 days, control 43.1): 34.2 µmol/L
- average iron level in the blood (male Wistar rats [2]; after 7 days, control 44.0): 36 µmol/L
- finding at the duodenum (male Wistar rats [2]; rats treated with dimoxystrobin, occurred only in the adult animals): distinct thickening of the duodenum
- blood level of iron (male Wistar rats [2]; after 2 days, control 92.6): 35.8 µmol/L
- blood level of iron (male Wistar rats [2]; after 7 days): 33.6 µmol/L
- level of iron in the blood (male Wistar rats [2]; after 2 days, control 96.7): 56 µmol/L
- level of iron in the blood (male Wistar rats [2]; after 7 days, control 96.1): 59.7 µmol/L
